Consider one compound from patent US9267129B2, “Compositions and methods for conferring herbicide resistance” (BEN-GURION UNIVERSITY OF THE NEGEV RESEARCH AND DEVELOPMENT …, priority 2011, dated 2016).

This test has as its system E. coli BUM1 transformed with pAH29 (bacterial AHASII). As to the kind of experiment: Growth on M9 plates with SMM, bacteria transformed with pAH29. The class given is cell-based, Escherichia coli. The settings on record: 50 μM SMM, 48 hrs, 37° C. On the procedure: This strain also requires proline and thiamin, regardless of AHAS expression. Transformation of BUM1 cells was achieved using a standard heat shock protocol. BUM1 cells were grown in LB or in M9 minimal medium (7 mg/ml Na2HPO4; 3 mg/ml KH2PO4; 0.5 mg/ml NaCl; 1 mg/ml NH4Cl; 0.12 mg/ml MgSO4; 0.35 mg/ml thiamin HCl; 2 mg/ml glucose) supplemented with 200 μg/ml proline. Where appropriate, the M9 medium was supplemented with the BCAAs valine, leucine, and isoleucine (150 μg/ml of each) or with 50 μM SMM. BUM1 transformants were propagated and kept on LB medium supplemented with 100 μg/ml Ampicillin. For functional expression assays, the cells were washed and plated on M9 agar plates and incubated for 48 hrs at 37° C. […]
The expression vector pEp-empty, an empty plasmid that retains the native ilvEp promoter and ATG start codon, was created by amplification of pAH29 plasmid with the pAH29-empty primer set, and included BamHI and SalI restriction sites for future fusion with the algal genes. Three forms of PiAHAS genes were used for this experiment: PiAHAS full open reading frame (ORF), truncated PiAHAS without the estimated chloroplast targeting peptide (from Serine91), and PimAHAS containing the point mutation (W605S). […] The plates were incubated for 48 hrs (FIG. 3) and bacterial growth was determined. […]

As for `COC(=O)c1ccccc1S(=O)(=O)NC(=O)Nc1nc(C)cc(C)n1` [SMM, sulfometuron methyl], the “bacterial growth in presence of SMM” value is given as “able to grow slowly”.
